# Source: patent US20110092544A1, “FUNGICIDAL PYRIDINES” (E.I. DU PONT DE nemours and company, priority 2008, published 2011)
# Key:
# [1] = system: Erysiphe graminis f. sp. tritici; assay: Test A: wheat powdery mildew, preventive spray on wheat seedlings, visual disease rating; assay type: in vivo; conditions: for pest or weed control at 40 ppm / pest or weed control at 200 ppm: Blumeria graminis, 192 h; for pest or weed control at 40 ppm: 40 ppm (compound number followed by *); for pest or weed control at 200 ppm / Test A rating (% disease control): 100 = 100% disease control, 0 = no control, 200 ppm
# How it was run: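 Acetone/water (50/50) suspension with 250 ppm surfactant sprayed to run-off on wheat seedlings (200 ppm ≈ 500 g/ha); inoculated next day with E. graminis spore dust. Incubated 8 days at 20° C, then visually rated 0–100% disease control versus untreated controls; tests at 200 ppm or 40 ppm.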
# Septoria nodorum = assay: Test D: wheat glume blotch, preventive spray on wheat seedlings, visual disease rating; assay type: in vivo; conditions: for pest or weed control at 40 ppm / pest or weed control at 200 ppm: Parastagonospora nodorum, 216 h; for pest or weed control at 40 ppm: 40 ppm (compound number followed by *); for pest or weed control at 200 ppm / Test D rating (% disease control): 100 = 100% disease control, 0 = no control, 200 ppm
# How it was run: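 Compounds in 3% acetone, then 50/50 acetone–water with 250 ppm Trem 014, sprayed to run-off at 200 ppm (500 g/ha; some at 40 ppm) one day before spore inoculation. Held 48 h saturated at 20 °C, then 7 days at 20 °C; visual rating as % disease control vs untreated (0–100).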
# Septoria tritici = assay: Test C: wheat leaf blotch, preventive spray on wheat seedlings, visual disease rating; assay type: in vivo; conditions: for pest or weed control at 40 ppm / pest or weed control at 200 ppm: Zymoseptoria tritici, 504 h; for pest or weed control at 40 ppm: 40 ppm (compound number followed by *); for pest or weed control at 200 ppm / Test C rating (% disease control): 100 = 100% disease control, 0 = no control, 200 ppm
# How it was run: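 Wheat seedlings sprayed to run-off with compound in acetone/water plus 250 ppm surfactant at 200 ppm (≈500 g/ha), or 40 ppm where marked; inoculated with Septoria tritici next day. Held saturated at 20 °C for 48 h, then 19 days at 20 °C; disease control rated visually 0–100 versus controls.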
# [2] = system: Puccinia recondite f. sp. tritici; assay: Test B: wheat leaf rust, preventive spray on wheat seedlings, visual disease rating; assay type: in vivo; conditions: for pest or weed control at 40 ppm / pest or weed control at 200 ppm: 192 h; for pest or weed control at 40 ppm: 40 ppm (compound number followed by *); for pest or weed control at 200 ppm / Test B rating (% disease control): 100 = 100% disease control, 0 = no control, 200 ppm
# How it was run: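 Wheat seedlings were sprayed to run-off with compound suspension, 200 ppm (≈500 g/ha) or 40 ppm where marked, containing surfactant in acetone/water. Inoculation with Puccinia recondita spores followed one day later, then 24 h in saturated humidity at 20° C and 7 days at 20° C. Disease control was rated visually, 0–100% versus controls.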
# Alternaria solani = assay: Test E: tomato early blight, preventive spray on tomato seedlings, visual disease rating; assay type: in vivo; conditions: for pest or weed control at 40 ppm / pest or weed control at 200 ppm: Alternaria solani, 168 h; for pest or weed control at 40 ppm: 40 ppm (compound number followed by *); for pest or weed control at 200 ppm / Test E rating (% disease control): 100 = 100% disease control, 0 = no control, 200 ppm
# How it was run: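 Seedlings sprayed to run-off with compound in acetone/water plus 250 ppm Trem 014 (200 ppm ≈ 500 g/ha), inoculated with spores next day. Held 48 h saturated at 27 °C, then 5 days at 20 °C; visual rating 0–100% disease control relative to controls.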
# Botrytis cinerea = assay: Test F: tomato botrytis, preventive spray on tomato seedlings, visual disease rating; assay type: in vivo; conditions: for pest or weed control at 40 ppm / pest or weed control at 200 ppm: Botrytis cinerea, 120 h; for pest or weed control at 40 ppm: 40 ppm (compound number followed by *); for pest or weed control at 200 ppm / Test F rating (% disease control): 100 = 100% disease control, 0 = no control, 200 ppm
# How it was run: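 Tomato seedlings sprayed to run-off with compound suspended in acetone/water (50/50) plus 250 ppm Trem 014, at 200 ppm (≈500 g/ha) or 40 ppm where marked. Inoculated next day with B. cinerea spores, 48 h saturated atmosphere at 20 °C, then 3 days at 24 °C. Visual rating, 0–100% disease control relative to controls.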
# Rhizoctonia oryzae = assay: Test G: turf brown patch, preventive spray on creeping bent grass seedlings, visual disease rating; assay type: in vivo; conditions: 200 ppm, 100 = 100% disease control, 0 = no control; for pest or weed control at 200 ppm: Waitea circinata, in Agrostis stolonifera, 120 h
# Source text: General protocol for preparing test suspensions for Tests A-H: The test compounds were first dissolved in acetone in an amount equal to 3% of the final volume and then suspended at the desired concentration (in ppm) in acetone and purified water (50/50 mix) containing 250 ppm of the surfactant Trem® 014 (polyhydric alcohol esters). The resulting test suspensions were then used in tests A-H. Spraying a 200 ppm test suspension to the point of run-off on the test plants was the equivalent of a rate of 500 g/ha.
# The test suspension was sprayed to the point of run-off on creeping bent grass seedlings. The following day the seedlings were inoculated with a spore suspension of Rhizoctonia oryzae (the causal agent of turf brown patch) and incubated in a saturated atmosphere at 27° C. for 48 h, and then moved to a growth chamber at 27° C. for 3 days, after which time disease ratings were visually made.
# Results for Tests A-H are given in Table A. In the table, a rating of 100 indicates 100% disease control and a rating of 0 indicates no disease control (relative to the controls). A dash (-) indicates no test results. All results are for compounds tested at 200 ppm except where the compound number is followed by “*” which indicates the compound was tested at 40 ppm.
# Plasmopara viticola = assay: Test H: grape downy mildew, spray after inoculation of grape seedlings, visual disease rating; assay type: in vivo; conditions: 200 ppm, 100 = 100% disease control, 0 = no control; for pest or weed control at 200 ppm: Plasmopara viticola, 192 h
melting point,Structure (SMILES),pest or weed control at 40 ppm [1],pest or weed control at 40 ppm (Septoria nodorum),pest or weed control at 40 ppm (Septoria tritici),pest or weed control at 40 ppm [2],pest or weed control at 40 ppm (Alternaria solani),pest or weed control at 40 ppm (Botrytis cinerea),pest or weed control at 200 ppm [1],pest or weed control at 200 ppm (Septoria nodorum),pest or weed control at 200 ppm (Septoria tritici),pest or weed control at 200 ppm [2],pest or weed control at 200 ppm (Alternaria solani),pest or weed control at 200 ppm (Botrytis cinerea),also measured
159 to 165 °C,"COc1cc(OC)c(Cl)c(-c2c(CC#N)cnc(C)c2-c2c(F)cc(F)cc2F)c1 [Compound 133, 4-(2-chloro-3,5-dimethoxyphenyl)-6-methyl-5-(2,4,6-trifluorophenyl)-3-pyridineacetonitrile]",98%,95%,100%,100%,99%,100%,–,–,–,–,–,–,–
110 to 115 °C,"COc1cc(OC)cc(-c2c(CCl)cnc(C)c2-c2c(F)cc(F)cc2F)c1 [Compound 110, 5-(chloromethyl)-4-(3,5-dimethoxyphenyl)-2-methyl-3-(2,4,6-trifluorophenyl)pyridine]",–,–,–,–,–,–,100%,87%,96%,100%,100%,99%,–
166 to 167 °C,"COc1cc(OC)cc(-c2c(C(C)(C)O)cnc(C)c2-c2c(F)cc(F)cc2F)c1 [Compound 44, 4-(3,5-dimethoxyphenyl)-α,α,6-trimethyl-5-(2,4,6-trifluorophenyl)-3-pyridinemethanol]",–,–,–,–,–,–,99%,99%,100%,100%,100%,99%,pest or weed control at 200 ppm (Rhizoctonia oryzae): 86%
93 to 95 °C,"CCOC(=O)c1cnc(C)c(-c2c(F)cc(F)cc2F)c1-c1cc(OC)cc(OC)c1 [Compound 130, ethyl 4-(3,5-dimethoxyphenyl)-6-methyl-5-(2,4,6-trifluorophenyl)-3-pyridinecarboxylate]",–,–,–,–,–,–,100%,0%,–,93%,99%,100%,–
123 to 127 °C,"COc1cc(OC)cc(-c2c(-c3ccccc3F)cnc(C)c2-c2c(F)cc(F)cc2F)c1 [Compound 89, 4-(3,5-dimethoxyphenyl)-5-(2-fluorophenyl)-2-methyl-3-(2,4,6-trifluorophenyl)pyridine]",100%,99%,97%,100%,99%,100%,–,–,–,–,–,–,–
131 to 133 °C,"COc1cc(OC)cc(-c2c(CC#N)cnc(C)c2-c2c(F)cc(F)cc2F)c1 [Compound 124, 4-(3,5-dimethoxyphenyl)-6-methyl-5-(2,4,6-trifluorophenyl)-3-pyridineacetonitrile]",100%,100%,99%,100%,100%,100%,–,–,–,–,–,–,–
102 to 105 °C,"CCc1cnc(C)c(-c2c(F)cc(F)cc2F)c1-c1cc(OC)cc(OC)c1 [Compound 137, 4-(3,5-dimethoxyphenyl)-5-ethyl-2-methyl-3-(2,4,6-trifluorophenyl)pyridine]",100%,97%,100%,100%,99%,100%,–,–,–,–,–,–,–
–,COc1cc(OC)cc(-c2c(C(=O)N(C)C)cnc(C)c2-c2ccccc2)c1 [Compound 10],–,–,–,–,–,–,–,–,–,–,–,–,Test A rating (% disease control) [1]: 96%; Test G rating (% disease control) (Rhizoctonia oryzae): 0%; Test D rating (% disease control) (Septoria nodorum): 0%; Test C rating (% disease control) (Septoria tritici): 33%; Test H rating (% disease control) (Plasmopara viticola): 0%; Test B rating (% disease control) [2]: 0%; Test E rating (% disease control) (Alternaria solani): 8%; Test F rating (% disease control) (Botrytis cinerea): 80%
–,COc1cc(OC)cc(-c2c(C(C)=O)cnc(C)c2-c2c(F)cccc2F)c1 [Compound 41],–,–,–,–,–,–,–,–,–,–,–,–,Test A rating (% disease control) [1]: 100%; Test G rating (% disease control) (Rhizoctonia oryzae): 99%; Test D rating (% disease control) (Septoria nodorum): 0%; Test C rating (% disease control) (Septoria tritici): 99%; Test H rating (% disease control) (Plasmopara viticola): 0%; Test B rating (% disease control) [2]: 98%; Test E rating (% disease control) (Alternaria solani): 99%; Test F rating (% disease control) (Botrytis cinerea): 98%
–,"COc1cc(OC)cc(-c2c(C(C)=O)cnc(C)c2-c2c(F)cc(F)cc2F)c1 [Compound 40, 1-[4-(3,5-dimethoxyphenyl)-6-methyl-5-(2,4,6-trifluorophenyl)-3-pyridinyl]ethanone]",–,–,–,–,–,–,94%,0%,87%,80%,97%,90%,pest or weed control at 200 ppm (Rhizoctonia oryzae): 49%; pest or weed control at 200 ppm (Plasmopara viticola): 0%
–,COc1cc(OC)cc(-c2c(-c3ccccc3F)cnc(C)c2-c2ccc(F)cc2)c1 [Compound 35],–,–,–,–,–,–,–,–,–,–,–,–,Test A rating (% disease control) [1]: 99%; Test G rating (% disease control) (Rhizoctonia oryzae): 99%; Test D rating (% disease control) (Septoria nodorum): 99%; Test C rating (% disease control) (Septoria tritici): 99%; Test H rating (% disease control) (Plasmopara viticola): 0%; Test B rating (% disease control) [2]: 100%; Test E rating (% disease control) (Alternaria solani): 99%; Test F rating (% disease control) (Botrytis cinerea): 99%
–,"COc1cc(OC)cc(-c2c(-c3ccccc3)cnc(C)c2-c2ccc(F)cc2)c1 [Compound 34, 4-(3,5-dimethoxyphenyl)-3-(4-fluorophenyl)-5-phenyl-2-methylpyridine]",–,–,–,–,–,–,96%,77%,100%,96%,96%,99%,pest or weed control at 200 ppm (Rhizoctonia oryzae): 63%; pest or weed control at 200 ppm (Plasmopara viticola): 0%
